Assay results published in patent US20090076278A1, “METHINE DYES AND USES OF THE SAME” (KABUSHIKI KAISHA HAYASHIBARA SEIBUTSU KAGAKU KENKYUJO, priority 2006, published 2009).

Columns and labels:
Assay type in all cases: physicochemical
[1] = DSC analysis for decomposition point (thermal property); conditions: DSC analysis of crystal
Source text: As described above, the methine dyes of the present invention have main absorption maxima in the region at wavelengths of longer than 300 nm, usually, at wavelengths of around 350 to 850 nm, and have distinctly high molecular absorption coefficients (may be abbreviated as “ε”) of 1.0×10^5 or more, usually, 1.5×10^5 or more at their absorption maxima, and efficiently absorb the light in such wavelength region. […] As is well known, it is said that the decomposition point and the glass transition point of an organic compound are recognized as important indexes of their thermal stability, i.e., compounds with higher decomposition points and glass transition points tend to have a higher thermal stability. Accordingly, the methine dyes of the present invention can be quite advantageously used as light-absorption materials which absorb the light in the ultra violet and the infrared regions to shield it, or use the light energy of the above regions in various fields of, for example, information recordings, solar energy generations, electric equipments, electric communications apparatuses, optical equipments, clothes, building/bedding/decorating products, health goods, and agricultural materials. The decomposition points of the methine dyes can be determined by conventional […] (abbreviated as “DSC” herein after).
Conventional measurement of the dye for visible absorption spectrum in methanol solution as an absorption property gave a main absorption maximum at a wavelength of about 544 nm (E=1.94×10^5). ^1H-NMR Analysis of the methine dye in dimethyl sulfoxide-d^6 solution gave a chemical shift δ (ppm, TMS) at peaks of 0.15 to 0.32 (2H, m, —CH2—), 0.65 to 0.82 (2H, m, —CH2—), (6H, t, CH3—), 1.23 (6H, t, CH3—), 1.62 (6H, s, CH3—), 1.80 (6H, s, CH3—), 1.87 (6H, s, CH3—), 1.85 to 2.07 (2H, m, —CH2—), 2.70 to 2.90 (2H, m, —CH2—), 3.95 to 4.20 (8H, m, —CH2—), 6.39 (2H, d, —CH═), 6.48 (2H, d, —CH═), 7.51 (2H, t, ArH), 7.59 (2H, t, ArH), 7.61 (2H, d, ArH), 7.66 (2H, t, ArH), 7.75 (2H, d, ArH), 7.78 (2H, t, ArH), 8.01 (4H, t, ArH), 8.13 (4H, t, ArH), 8.16 (2H, d, ArH), 8.24 (2H, d, ArH), and 8.32 (2H, t, —CH═).

[2] = Light tolerance of dye thin membrane under xenon lamp exposure; conditions: thin membrane on glass substrate; 7.5 kw xenon lamp, two hours, 180 W/m^2; transmittance at absorption maximum wavelength (about 550 nm)
Method: Any one of the methine dyes represented by Chemical Formulae 1 to 3, 8 and 36, obtained by the methods in Examples 4 to 8, was weighed by 15 mg, added to three milliliters of TFP, and dissolved by energizing with ultra sound for five minutes at ambient temperature. The resulting solution was dropped to homogeneity over either side of a polished glass substrate (5 cm×5 cm) by spin coating, and the substrate was rotated at 1,000 rμm for one minute to homogeneously apply the solution over the substrate, and dried by successively blowing hot air and cool air thereunto in this order to form a thin membrane of any one of the methine dyes of the present invention over the glass substrate.
The transmittance (T0) of the methine dyes in the form of a thin layer was measured at their absorption maximum wavelengths (about 550 nm), and a 7.5 kw xenon lamp was installed apart from the glass substrate at a prescribed distance to expose the glass substrate for two hours with an irradiation energy of 180 W/m^2 when measured on the surface of the substrate while blowing cool air thereunto. Thereafter, the transmittance (T) at each of their absorption maximum wavelengths was instantly remeasured, and the residual percentage (%) of each dye was calculated by substituting the measured transmittances T and To Formula 1. In parallel, the thin membranes formed with the related compounds represented by Chemical Formulae 65 to 68 were similarly treated as in the above and respectively measured for their transmittances at their absorption maximum wavelengths.

[3] = Solubility of methine dye in TFP; conditions: for Solubility: dissolved in 100 ml of TFP at 20° C.; for solubility in TFP (in words): 1.6% by weight in TFP for forming a recording layer
Method: For the methine dyes of the present invention as listed in Table 1, they were respectively dissolved in 100 ml of TFP at 20° C. and, as solubility, measured for the mass of each methine dye. In parallel, conventionally known related compounds represented by Chemical Formulae 65 to 67 were similarly measured for their solubilities.

| SMILES | decomposition point [1] | Residual percentage (%) of dye [2] | Solubility [3] | solubility in TFP (in words) [3] |
| --- | --- | --- | --- | --- |
| C[N+]1=C(C=CNc2ccccc2)C(C)(CCCCC2(C)C(C=CNc3ccccc3)=[N+](C)c3ccc4ccccc4c32)c2c1ccc1ccccc21.[O-][Cl+3]([O-])([O-])[O-].[O-][Cl+3]([O-])([O-])[O-] (stereo not shown) [Chemical Formula 24] | about 300 °C | – | – | – |
| CCN1C(=CC=CC2=[N+](CC)c3ccc4ccccc4c3C2(C)C)C(C)(C)c2c1ccc1ccccc21 [Chemical Formula 65, reference compound] | – | 73% | 1.10 % by weight | – |
| CCN1C(=CC=CC2=[N+](CC)c3ccc4ccccc4c3C2(C)CCCCC2(C)C(C=CC=C3N(CC)c4ccc5ccccc5c4C3(C)Cc3ccccc3)=[N+](CC)c3ccc4ccccc4c32)C(C)(Cc2ccccc2)c2c1ccc1ccccc21.F[P-](F)(F)(F)(F)F.F[P-](F)(F)(F)(F)F (stereo not shown) [Chemical Formula 2] | about 211 °C | 66% | 2.68 % by weight | – |
| CCN1C(=CC=CC2=[N+](CC)c3ccc4ccccc4c3C2(C)CCCCC2(C)C(C=CC=C3N(CC)c4ccc5ccccc5c4C34CCCCC4)=[N+](CC)c3ccc4ccccc4c32)C2(CCCCC2)c2c1ccc1ccccc21.F[P-](F)(F)(F)(F)F.F[P-](F)(F)(F)(F)F (stereo not shown) [Chemical Formula 3] | about 235 °C | 64% | 2.47 % by weight | – |
| CCN1C(=CC=CC2=[N+](CC)c3ccc4ccccc4c3C23CCCCC3)C(C)(C)c2c1ccc1ccccc21 [Chemical Formula 66] | – | 58% | 0.82 % by weight | relatively low solubility in TFP |
| CCN1C(=CC=CC2=[N+](CC)c3ccc4ccccc4c3C2(C)Cc2ccccc2)C(C)(Cc2ccccc2)c2c1ccc1ccccc21 (stereo not shown) [Chemical Formula 68, reference compound] | – | 50% | – | – |
| CN1C(=CC2=[N+](C)c3ccc4ccccc4c3C2(C)CCCCC2(C)C(C=C3Oc4ccccc4N3C)=[N+](C)c3ccc4ccccc4c32)Oc2ccccc21.[O-][Cl+3]([O-])([O-])[O-].[O-][Cl+3]([O-])([O-])[O-] (stereo not shown) [Chemical Formula 21] | about 285 °C | – | – | – |
| CCN1C(=CC=CC2=[N+](CCCCCC[N+]3=C(C=CC=C4N(CC)c5ccc6ccccc6c5C4(C)C)C(C)(C)c4c3ccc3ccccc43)c3ccc4ccccc4c3C2(C)C)C(C)(C)c2c1ccc1ccccc21 [Chemical Formula 67] | – | 60% | 0.44 % by weight | relatively low solubility in TFP |
| CCN1C(=CC=CC2=[N+](C)c3ccc4ccccc4c3C2(C)Cc2ccc(CC3(C)C(C=CC=C4N(CC)c5ccc6ccccc6c5C4(C)Cc4ccccc4)=[N+](C)c4ccc5ccccc5c43)cc2)C(C)(Cc2ccccc2)c2c1ccc1ccccc21.F[P-](F)(F)(F)(F)F.F[P-](F)(F)(F)(F)F (stereo not shown) [Chemical Formula 36] | about 220 °C | 64% | 1.66 % by weight | – |
| CCN1C(=CC=CC2=[N+](CC)c3ccc4ccccc4c3C2(C)CCCCCCC2(C)C(C=CC=C3N(CC)c4ccc5ccccc5c4C3(C)C)=[N+](CC)c3ccc4ccccc4c32)C(C)(C)c2c1ccc1ccccc21.F[P-](F)(F)(F)(F)F.F[P-](F)(F)(F)(F)F (stereo not shown) [Chemical Formula 8] | – | 75% | 2.58 % by weight | – |
